Test results: patent US8299048B2, “Hexahydrocyclopentyl[f]indazole sulfonamides and derivatives thereof as selective glucocorticoid receptor modulators” (Merck Sharp & Dohme Corp., priority 2008, dated 2012)

Legend:
[1] = biological target: T1, human GR (Homo sapiens, UniProt P04150); assay: Trans-Activation Modulation of Glucocorticoid Receptor (GRAMMER), MMTV-LUC reporter, agonist mode; assay type: cell-based; parameters: endogenous in cells; details: for Emax: A549, A549 cells, maximum activity, read-out: Transactivation A549 Cells GRAMMER Emax; for EC50: A549 cells, inflection point, read-out: Transactivation A549 Cells GRAMMER IP
T1 sequence (P04150 1-777): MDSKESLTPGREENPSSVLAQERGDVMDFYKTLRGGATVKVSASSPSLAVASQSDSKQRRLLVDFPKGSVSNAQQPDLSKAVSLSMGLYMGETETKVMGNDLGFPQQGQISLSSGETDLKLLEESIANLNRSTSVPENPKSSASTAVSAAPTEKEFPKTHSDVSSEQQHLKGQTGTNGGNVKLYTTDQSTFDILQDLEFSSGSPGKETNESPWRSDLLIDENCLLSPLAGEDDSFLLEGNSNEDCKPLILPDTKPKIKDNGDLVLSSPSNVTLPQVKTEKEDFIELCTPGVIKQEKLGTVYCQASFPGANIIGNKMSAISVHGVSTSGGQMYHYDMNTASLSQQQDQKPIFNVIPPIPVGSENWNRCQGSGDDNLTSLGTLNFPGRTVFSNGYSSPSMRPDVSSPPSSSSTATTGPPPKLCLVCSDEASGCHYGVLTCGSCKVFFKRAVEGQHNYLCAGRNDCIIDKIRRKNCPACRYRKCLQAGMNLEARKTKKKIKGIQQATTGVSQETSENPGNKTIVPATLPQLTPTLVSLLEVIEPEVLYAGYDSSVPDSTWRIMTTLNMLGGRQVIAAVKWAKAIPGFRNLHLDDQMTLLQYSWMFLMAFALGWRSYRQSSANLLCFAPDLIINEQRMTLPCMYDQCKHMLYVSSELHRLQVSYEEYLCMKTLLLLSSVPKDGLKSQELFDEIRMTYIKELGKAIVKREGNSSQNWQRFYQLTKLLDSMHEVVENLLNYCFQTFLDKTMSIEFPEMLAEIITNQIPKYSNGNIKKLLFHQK
Method in brief: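 Readout is luciferase from a modified MMTV LTR promoter after 24 h compound exposure alongside 10 nM dexamethasone (100% activity reference), DMSO ≤1%.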

[2] = biological target: T1, human GR; assay: Transrepression Assay (GITAR), TNFα-β-lactamase reporter in U937 cells; assay type: cell-based; parameters: U937 cells contain an endogenous glucocorticoid receptor (GR); endogenous in cells; host or cells: U937 cells stably transfected with the TNF-alpha promoter/beta-lactamase reporter; details: for EC50: U937 cells, inflection point, read-out: Transrepression U937 Cells GITAR IP; for GITAR > GRAMM % SEP: GITAR Emax minus GRAMMER Emax
Method in brief: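 U937 cells with endogenous GR, stably carrying TNFα promoter–β-lactamase, preincubated with compound 30–45 min at 37° C, then stimulated with PMA 5 ng/ml and LPS 100 ng/ml (final) ~18 hr. Read-out via CCF2-AM loading; repression by 100 nM dexamethasone set as 100%.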

[3] = U-937, U937 cells, maximum activity, read-out: Transrepression U937 Cells GITAR Emax
[4] = U-937, activity repressed by 100 nM dexamethasone alone set as 100%, read-out: maximal activity in the transrepression (GITAR) assay

Row | Emax [1] [%] | EC50 [1] [nM] | EC50 [2] [nM] | Emax [2, 3] [%] | Emax [2, 4] [%] | GITAR > GRAMM % SEP [2] [%] | SMILES
1 | 21.3 | 704 | 1570 | 37 | > 5 |  | C[C@]12Cc3cnn(-c4ccccc4)c3C=C1CC[C@@H]2CN(CCc1ccccn1)S(=O)(=O)Cc1cccnc1 [Example 140, N-{[(4αR,5S)-4α-methyl-1-phenyl-1,4,4α,5,6,7-hexahydrocyclopenta[f]indazol-5-yl]methyl}-1-pyridin-3-yl-N-(2-pyridin-2-ylethyl)methanesulfonamide]
2 | 15.2 | 315 | 263 | 52.4 | > 5 | 37.2 | C[C@]12Cc3cnn(-c4ccc(F)cc4)c3C=C1CC[C@@H]2CN(CCc1ccccn1)S(=O)(=O)Cc1ccccc1C(F)(F)F [Example 153, N-{[(4αR,5S)-1-(4-fluorophenyl)-4α-methyl-1,4,4α,5,6,7-hexahydrocyclopenta[f]indazol-5-yl]methyl}-N-(2-pyridin-2-ylethyl)-1-[2-(trifluoromethyl)phenyl]methanesulfonamide]
3 | 73.5 | 676 | 94.9 | 81.2 | > 5 | 7.7 | C[C@]12Cc3cnn(-c4ccc(F)cc4)c3C=C1CC[C@@H]2CN(CCc1ccccc1O)S(=O)(=O)c1ccccc1F [Example 116, 2-fluoro-N-{[(4αR,5S)-1-(4-fluorophenyl)-4α-methyl-1,4,4α,5,6,7-hexahydrocyclopenta[f]indazol-5-yl]methyl}-N-[2-(2-hydroxyphenyl)ethyl]benzenesulfonamide]
4 | 70.7 | 262 | 798 | 72.4 | > 5 | 1.7 | COc1ccccc1CCN(C[C@H]1CCC2=Cc3c(cnn3-c3ccccc3)C[C@@]21C)S(=O)(=O)CC(F)(F)F [Example 139, 2,2,2-trifluoro-N-[2-(2-methoxyphenyl)ethyl]-N-{[(4αR,5S)-4α-methyl-1-phenyl-1,4,4α,5,6,7-hexahydrocyclopenta[f]indazol-5-yl]methyl}ethanesulfonamide]
5 | 60.2 | 204 | 196 | 93.5 | > 5 | 33.3 | C[C@]12Cc3cnn(-c4ccc(F)cc4)c3C=C1CC[C@@H]2CN(CC(OS(=O)(=O)CC(F)(F)F)c1ccccn1)S(=O)(=O)CC(F)(F)F (stereo partly drawn) [Example 145, 2-{{[(4αR,5S)-1-(4-fluorophenyl)-4α-methyl-1,4,4α,5,6,7-hexahydrocyclopenta[f]indazol-5-yl]methyl}[(2,2,2-trifluoroethyl)sulfonyl]amino}-1-pyridin-2-ylethyl 2,2,2-trifluoroethanesulfonate]
6 | 37.6 | 748 | 325 | 75.7 | > 5 | 38.1 | C[C@]12Cc3cnn(-c4ccc(F)cc4)c3C=C1CC[C@@H]2CN(CCc1ccccc1F)S(=O)(=O)Cc1ccc(Cl)c(Cl)c1 [Example 111, 1-(3,4-dichlorophenyl)-N-[2-(2-fluorophenyl)ethyl]-N-{[(4αR,5S)-1-(4-fluorophenyl)-4α-methyl-1,4,4α,5,6,7-hexahydrocyclopenta[f]indazol-5-yl]methyl}methanesulfonamide]
7 | 23.2 | 422 | 791 | 74 | > 5 | 50.8 | C[C@]12Cc3cnn(-c4ccc(F)cc4)c3C=C1CC[C@@H]2CN(Cc1cccnn1)S(=O)(=O)CC(F)(F)F [Example 132, 2,2,2-trifluoro-N-{[(4αR,5S)-1-(4-fluorophenyl)-4α-methyl-1,4,4α,5,6,7-hexahydrocyclopenta[f]indazol-5-yl]methyl}-N-(pyridazin-3-ylmethyl)ethanesulfonamide]
